Patent US11192849B2, “Compounds, compositions, and methods for modulating ferroptosis and treating excitotoxic disorders” (THE TRUSTEES OF COLUMBIA UNIVERSITY IN THE CITY OF NEW YORK, priority 2013, dated 2021)

Columns and labels:
[1] = 2,2-Diphenyl-1-picrylhydrazyl (DPPH) cell-free antioxidant assay; assay type: biochemical; settings: test compound 0.05 mM, 30 minutes
Experimental: The stable radical DPPH (Blois, 1958) was dissolved in methanol to a final working concentration of 0.05 mM. This was prepared as follows. First, a 100× stock concentration (5 mM) was prepared by dissolving 3.9 mg DPPH in 2 mL methanol. Then, for 25 mL of 0.05 mM final working solution, 250 μL of the 5 mM solution was added to 24.75 mL of methanol. 1 mL of DPPH solution was added to a small volume (<5 μL) each test compound dissolved in DMSO. The final concentration of each test compound was 0.05 mM. Samples were inverted several times and allowed to incubate at room temperature for 30 minutes. Samples were then aliquoted to white 96-well solid-bottom dishes (Corning) and absorbance at 517 nm was recorded using a TECAN M200 plate reader. All values were normalized to background (methanol only). The experiment was repeated three times and the data was averaged.
In parallel with the above cell-based assay, a 2,2-diphenyl-1-picrylhydrazyl (DPPH) assay was used to examine the ability of each analog to scavenge free radicals in a cell-free in vitro solution—a test of intrinsic antioxidant capacity. […] Redox active analogs scavenged the DPPH radical by 60-90% within 30 minutes (FIG. 18a).

ERK phosphorylation = ERK phosphorylation Western blot in HT-1080 cells; assay type: cell-based, human
Experimental: Cells were trypsinized, pelleted, and washed once in PBS. Cells were lysed for 20 minutes in buffer containing: 50 mM HEPES pH 7.4, 40 mM NaCl, 2 mM EDTA, 0.5% Triton X-100, 1.5 mM sodium orthovanadate, 50 mM NaF, 10 mM sodium pyrophosphate, 10 mM sodium ß-glycerophosphate, and protease inhibitor tablet (Roche, Nutley, N.J.). Unlysed cells and debris were pelleted for 10 minutes at 10,000 rpm in a benchtop microcentrifuge at 4° C., and the supernatant was removed and mixed with 5×SDS loading buffer. Samples were separated by SDS-polyacrylamide gel electrophoresis. Western transfer was performed using the iBlot system (Invitrogen). Membrane was blocked for 1 hour in Licor Odyssey Blocking Buffer (LI-COR) and incubated in primary antibody overnight at 4° C. Following three 5-minute washes in Tris-buffered saline (pH 7.4) with 1% Tween-20 (TBS-T), membrane was incubated with secondary antibodies for 45 minutes in the dark. The membrane was washed again in TBST for three 5-minute washes with protection from light and scanned using the Odyssey Imaging System (LI-COR). Antibodies used were as follows: rabbit anti-phospho p42/44 MAPK (Cell Signaling Technology, #9101) and rabbit anti-p42/44 MAPK (Cell Signaling Technology, #9102). The secondary antibody was IR dye 800CW goat anti-rabbit IgG (LI-COR).

[2] = test system: mice, CaOx-induced nephropathy; experiment: Acute oxalate nephropathy model; assay type: in vivo, mouse; settings: Ferrostatin-1 10 mg/kg i.p.
Experimental: Mice were divided into two groups. One group received vehicle injections and another group received Ferrostatin-1 (10 mg/kg i.p.). Then, 15 min later, both groups were given a single i.p. injection of 100 mg/kg sodium oxalate and 3% sodium oxalate in drinking water. Blood samples and kidneys were harvested after 24 h. Kidneys were kept at −80° C. for protein isolation and at −20° C. for RNA isolation. One part of the kidney was also kept in formalin to be embedded in paraffin for histological analysis. Kidney sections (2 μm) were stained with periodic acid-Schiff (PAS) reagent. Tubular injury was scored by assessing the percentage of necrotic tubules. Ly6B.2+ neutrophils were identified by immunostaining (clone 7/4; Serotec). Pizzolato stain was used to visualize CaOx crystals, and crystal deposit formation in the kidney was evaluated as described previously (Mulay et al., 2013), using the following point values: 0, no deposits; 1, crystals in papillary tip; 2, crystals in cortical medullary junction; 3, crystals in cortex. […] Serum creatinine and blood urea nitrogen were measured using Creatinine FS kit and Urea FS kit (both from DiaSys Diagnostic Systems) according to the manufacturer's protocol. Neutrophil infiltrates were counted in 15 high-power fields (hpfs) per section. For real-time quantitative RT-PCR, total RNA was isolated from kidneys using a Qiagen RNA extraction kit following the manufacturer's instructions. After quantification, RNA quality was assessed using agarose gels. […] Real-time quantitative RT-PCR (TaqMan) was performed using SYBR-Green PCR master mix and analyzed with a Light Cycler 480 (Roche). […] The expression of KIM-1, IL-6, CXCL-2, and NF-κB p65 was analyzed using the following primers: Kim-1 forward, 5′-[…]-3′ (SEQ ID NO:17); Kim-1 reverse, 5′-[…]-3′ (SEQ ID NO:18); IL-6 forward, 5′-[…]-3′ (SEQ ID NO:19); IL-6 reverse, 5′-[…]-3′ (SEQ ID NO:20); CXCL-2 forward, 5′-[…]-3′ (SEQ ID NO:21); CXCL-2 reverse, 5′-[…]-3′ (SEQ ID NO:22); NF-κB p65 forward, 5′-[…]-3′ (SEQ ID NO:23); NF-κB p65 reverse, 5′-[…]-3′ (SEQ ID NO:24).

CCOC(=O)c1ccc(NC2CCCCC2)c(N)c1 [SRS8-28 (Fer-1), ethyl 3-amino-4-(cyclohexylamino)benzoate]
intrinsic antioxidant capability in the DPPH assay [1]: readily oxidized the stable radical | ERK phosphorylation (ERK phosphorylation): did not inhibit ERK phosphorylation | neutrophil infiltration and expression of CXCL-2, IL-6, KIM-1, p65 [2]: statistically significantly reduced | serum creatinine and urea [2]: significantly reduced | tubular injury score [2]: significantly reduced
